Experimental data reported in patent US20260167614A1, “IDENTIFICATION OF SMALL MOLECULES THAT RECRUIT AND ACTIVATE RNASE L” (UNIVERSITY OF FLORIDA RESEARCH FOUNDATION, INCORPORATED, priority 2022, published 2026).

Tests used:
[1] = biological target: T1, pre-miR-21 mutant and RNase L (Homo sapiens, UniProt Q05823, H672N); experiment: Co-immunoprecipitation of mutant pre-miR-21 and RNase L; type: binding; settings: base paired mutant pre-miR-21, inactive RNase L
T1 construct: GST (N, cleaved yes); made in house; host or cells: BL21 AI Escherichia coli
T1 sequence (Q05823 1-741 H672N): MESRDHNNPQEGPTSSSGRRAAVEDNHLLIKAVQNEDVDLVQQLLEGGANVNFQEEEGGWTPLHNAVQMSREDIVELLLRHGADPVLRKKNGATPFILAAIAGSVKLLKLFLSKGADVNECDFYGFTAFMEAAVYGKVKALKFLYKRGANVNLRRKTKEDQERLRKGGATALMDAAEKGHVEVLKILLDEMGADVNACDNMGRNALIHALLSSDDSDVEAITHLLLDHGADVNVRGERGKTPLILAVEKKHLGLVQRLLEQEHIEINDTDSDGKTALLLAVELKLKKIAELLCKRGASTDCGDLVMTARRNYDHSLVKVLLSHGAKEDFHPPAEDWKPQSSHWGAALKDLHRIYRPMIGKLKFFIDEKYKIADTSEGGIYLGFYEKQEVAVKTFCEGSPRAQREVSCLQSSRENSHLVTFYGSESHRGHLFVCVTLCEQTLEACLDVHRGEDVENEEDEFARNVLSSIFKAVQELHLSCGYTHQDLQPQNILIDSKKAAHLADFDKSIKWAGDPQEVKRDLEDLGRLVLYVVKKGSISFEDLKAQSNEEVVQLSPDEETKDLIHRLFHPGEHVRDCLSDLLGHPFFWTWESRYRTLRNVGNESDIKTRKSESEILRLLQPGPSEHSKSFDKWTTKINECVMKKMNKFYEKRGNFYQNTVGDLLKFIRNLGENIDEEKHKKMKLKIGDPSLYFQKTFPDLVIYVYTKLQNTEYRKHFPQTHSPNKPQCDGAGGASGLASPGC
Description: (§1) Co-Immunoprecipitation of pre-miR-2I and RNase L. Approximately 20,000 cpm of 32P 5′-end labeled WT or mutant pre-miR-21 or an RNA construct where the A-bulge was mutated to a base pair (5′-[…] UGGGCUGU-3′) was folded in 1× RNase L Assay Buffer for 1 min at 95° C. and cooled on ice for 10 min. Following cooling, β-mercaptoethanol (7 mM), ATP (50 μM), and MgCl2 (1 mM) were added to the solution. The solution was aliquoted, and compounds were incubated in solution for 15 min (1% DMSO final concentration). […] Beads were then washed with 1×PBS supplemented with 0.02% (v/v) Tween-20. Radioactive signal in the supernatant and associated with the beads was quantified by a Beckman Coulter LS6500 Liquid Scintillation Counter. Relative RNA enrichment was calculated by comparing the radioactive signal associated with beads compared to the total radioactive signal from the beads plus the supernatant.

pre-miR-21 and RNase L = biological target: T2, pre-miR-21 and RNase L (Homo sapiens, UniProt Q05823, H672N); experiment: Co-immunoprecipitation of pre-miR-21 and RNase L; type: binding; settings: WT 32P-pre-miR-21, inactive RNase L
T2 construct: GST (N, cleaved yes); made in house; host or cells: BL21 AI Escherichia coli
T2 sequence (Q05823 1-741 H672N): T1 sequence (Q05823 1-741 H672N)
Description: as §1

[2] = tested on: MDA-MB-231 cells modified with CRISPR and a control guide RNA; experiment: Global proteomics analysis via LC-MS/MS; type: cell-based
Description: RiboTAC 7 was then assessed for its ability to affect protein levels by deactivation of a miR-21-mediated cancer circuit, i.e., derepression of PDCD4. […] Proteome-wide analysis was also completed to study the effects of 7 and a locked nucleic acid (LNA) oligonucleotide that targets miR-21-5p on the proteome. The concentrations tested of both provided similar activity (5 nM of 7 and 100 nM of the LNA), as assessed by their effect on PDCD4 levels, ˜40% enhancement. […] Neither modality affected proteins that are direct targets of miRNA let-7b-5p, further supporting that RiboTAC 7 is selectively deactivating a miR-21-mediated cancer circuit in cells (FIG. 11C-11D).
Global proteomics analysis via LC-MS/MS. MDA-MB-231 cells modified with CRISPR and a control guide RNA were treated as described in “Cell Culture.” After treatment, the medium was removed, and the cells were washed with 1×DPBS. After washing, the cells were scraped from the culture plates, and the resulting suspension was centrifuged. Cell pellets were resuspended in 1×DPBS, and protein concentration was determined using a Pierce Micro BCA Protein Assay Kit (ThermoScientific). Urea (9 M in 100 mM NH4HCO3, pH 8) was added to a final concentration of 6 M to 30 μg lysate (15 μL prepared in 1×DPBS). […] Peptides were desalted over a self-packed C18 spin column, dried, and analyzed via LC-MS/MS. […]

pre-miR-21 = experiment: In vitro cleavage of dually labeled pre-miR-21 with RNase L; type: biochemical; settings: incubated with RNase L
miR-21 = experiment: Global miRNA profiling in MDA-MB-231 cells; type: cell-based; settings: 377 miRNAs
Description: Two CRISPR-modified MDA-MB-231 cell lines with either a scrambled control guide RNA (“Control sgRNA”; RNase L is expressed) or with an RNase L-targeting guide RNA (“RNase L-Targeting sgRNA”; RNase L protein abundance is knocked down) were used to complete these studies.
For global miRNA profiling experiments, RT was completed using 2 μg total RNA and a Mir-X miRNA First Strand Synthesis Kit (Takara) in a total volume of 20 μL. The RT reaction was then plated into the wells of a 384-well qPCR plate containing pre-diluted forward and reverse primers for the miRNA of interest. RT-qPCR was performed on a QuantStudio5™ Real-Time PCR Instrument (Applied Biosystems) using Power SYBR Green Master Mix (Applied Biosystems). Data were analyzed using the ΔΔCt method,^11 followed by calculation of log 2 fold changes and −log 10 p-values. The software Perseus was used to calculate the false discovery rate (FDR) of 1% with a group variance of S0(0.1).

CNC(=O)[C@H](c1ccccc1)N(C)Cc1ccc(-c2cccc(-c3sccc3NC(=O)CCOCCOCCOCCC(=O)NCCN3CCN(c4ccc5nc(-c6c(N)c7c(F)cccc7[nH]c6=O)[nH]c5c4)CC3)c2)cc1 [RiboTAC 7, (S)—N-(2-(4-(2-(4-amino-5-fluoro-2-oxo-1,2-dihydroquinolin-3-yl)-1H-benzo[d]imidazol-6-yl)piperazin-1-yl)ethyl)-3-(2-(2-(3-((2-(4′-((methyl(2-(methylamino)-2-oxo-1-phenylethyl)amino)methyl)-[1,1′-biphenyl]-3-yl)thiophen-3-yl)amino)-3-oxopropoxy)ethoxy)ethoxy)propanamide]
co-immunoprecipitation of RNA with RNase L [1]: not its base paired mutant
co-immunoprecipitation of RNA with RNase L (pre-miR-21 and RNase L): pulled down with RNase L
abundance of miR-21-repressed proteins (cumulative distribution analysis) ([2]; proteins encoded by mRNAs with a miR-21-5p binding site in 3′ UTR): statistically significant increase
proteins affected of the 3176 proteins detected ([2]; proteome-wide, 7 and LNA at concentrations of similar activity): 0.6%
cleavage of pre-miR-21 construct labeled with 6-FAM and BHQ (pre-miR-21): induced dose-dependent cleavage of pre-miR-21
miRNA profiling selectivity (miR-21): selectively down-regulated miR-21 across the transcriptome
